Experimental data reported in patent US20240124442A1, “TRICYCLIC-AMIDO-BICYCLIC PRMT5 INHIBITORS” (AMGEN INC., priority 2021, published 2024).

Assays:
[1] = system: HCT116 MTAP null cells; assay: HCT116 MTAP null cell line proliferation / cell viability (CellTiter-Glo, 6 days); format: cell-based; conditions: 144 h; HCT116 MTAP null cells, 6 days treatment, CellTiter-Glo cell viability; read-out: HCT-116 MTAP null IC50
Description: (§1) HCT116 Proliferation Activity
(§2) To assess selective anti-proliferative activity of compounds of the invention in cells that have loss expression of MTAP, an HCT-116 isogenic cell line pair was utilized where one cell line was engineered to genetically knockout both MTAP alleles. Cell viability was then assessed in both the parent HCT-116 cell line and the MTAP null cell line after 6 days of treatment with compounds of the present invention. Selective anti-proliferative activity in the MTAP null cell line indicates MTA-cooperative inhibition of PRMT5 and ability to inhibit growth of cancer cells that have loss of MTAP.
(§3) HCT116 MTAP null and WT cells were seeded in 96-well tissue culture plates in RPMI 1640 media+10% fetal bovine serum. Plates were incubated overnight at 37° C. and 5% CO2. Cells were then treated with an 8- or 9-point serial dilution of compound, using a top concentration of 1, or 10 μM, 1:3 serial dilution steps and, a DMSO-only control. Cells were incubated in the presence of drug for 6 days. Effects on cell viability were measured with the CellTiter-Glo® Luminescent Cell Viability Assay (Promega) per manufacturer's recommendation. Assay plates were read on an EnVision™ Multilabel Reader using the Ultra-Sensitive luminescence module. IC50 values were calculated with GraphPad Prism v 5.01 using symmetrical sigmoidal dose-response least squares fit with Hill slope fixed to −1 and top constrain to 100% or GeneData Screener using a 4-parameter logistic model to fit dose response curves.
(§4) Alternatively, compounds could be assayed with a 384 well plate format:
(§5) Compounds were pre-spotted into 384 well plates with a 22-point serial dilution of compound, using a top concentration of 10 or 50 μM, 1:2 serial dilution steps and, a DMSO-only control. HCT116 MTAP null and WT cells were then seeded as above and after 6 days effects on cell viability were measured with the CellTiter-Glo® Luminescent Cell Viability Assay (Promega). Assay plates were read as above and IC50 values were calculated with GeneData Screener using a 4-parameter logistic model to fit dose response curves. The reported IC50 represents the value where the curve transits 50% of control.

[2] = system: HCT116 WT cells; assay: HCT116 WT (parent) cell line proliferation / cell viability (CellTiter-Glo, 6 days); format: cell-based; conditions: Homo sapiens, HCT-116, 144 h, 6 days treatment
Description: as §1, §2, §3, §4, §5

SMILES	IC50 [1]	IC50 [2]
C[C@@H]1OCc2c(N)nc3ccc(C(=O)N(C)C4COc5cc(C(F)(F)F)ccc54)cc3c21 (mixture of isomers) [Example 205, (1R)-4-amino-N,1-dimethyl-N-((3S)-6-(trifluoromethyl)-2,3-dihydro-1-benzofuran-3-yl)-1,3-dihydrofuro[3,4-c]quinoline-8-carboxamide and (1S)-4-amino-N,1-dimethyl-N-((3S)-6-(trifluoromethyl)-2,3-dihydro-1-benzofuran-3-yl)-1,3-dihydrofuro[3,4-c]quinoline-8-carboxamide]	0.36 µM	12.3 µM
CN=S(C)(=O)c1ccc2c(c1)OC[C@H]2N(C)C(=O)c1ccc2nc(N)c3c(c2c1)COC3 (mixture of isomers) [Example 447, 4-amino-N-((3S)-6-((R)-N,S-dimethylsulfonimidoyl)-2,3-dihydro-1-benzofuran-3-yl)-N-methyl-1,3-dihydrofuro[3,4-c]quinoline-8-carboxamide and 4-amino-N-((3S)-6-((S)-N,S-dimethylsulfonimidoyl)-2,3-dihydro-1-benzofuran-3-yl)-N-methyl-1,3-dihydrofuro[3,4-c]quinoline-8-carboxamide]	0.724 µM	24.9 µM
CN=S(C)(=O)c1ccc2c(c1)OC[C@H]2N(C)C(=O)c1cc2c3c(c(N)nc2cn1)COC3 (mixture of isomers) [Example 456, 4-amino-N-((3S)-6-((R)-N,S-dimethylsulfonimidoyl)-2,3-dihydro-1-benzofuran-3-yl)-N-methyl-1,3-dihydrofuro[3,4-c][1,7]naphthyridine-8-carboxamide and 4-amino-N-((3S)-6-((S)-N,S-dimethylsulfonimidoyl)-2,3-dihydro-1-benzofuran-3-yl)-N-methyl-1,3-dihydrofuro[3,4-c][1,7]naphthyridine-8-carboxamide]	0.842 µM	24.1 µM
CN=S(C)(=O)c1ccc2c(c1)OC[C@H]2N(C)C(=O)c1cc2c3c(c(N)nc2cc1F)COC3 (mixture of isomers) [Example 463, 4-amino-N-((3S)-6-((R)-N,S-dimethylsulfonimidoyl)-2,3-dihydro-1-benzofuran-3-yl)-7-fluoro-N-methyl-1,3-dihydrofuro[3,4-c]quinoline-8-carboxamide and 4-amino-N-((3S)-6-((S)-N,S-dimethylsulfonimidoyl)-2,3-dihydro-1-benzofuran-3-yl)-7-fluoro-N-methyl-1,3-dihydrofuro[3,4-c]quinoline-8-carboxamide]	0.134 µM	14.7 µM
CN(C(=O)c1ccc2nc(N)c3c(c2c1)COC3)C1COc2cc(Br)ccc21 (racemic) [Example 203, 4-amino-N-((3R)-6-bromo-2,3-dihydro-1-benzofuran-3-yl)-N-methyl-1,3-dihydrofuro[3,4-c]quinoline-8-carboxamide and 4-amino-N-((3S)-6-bromo-2,3-dihydro-1-benzofuran-3-yl)-N-methyl-1,3-dihydrofuro[3,4-c]quinoline-8-carboxamide]	0.093 µM	4.59 µM
CN(C(=O)c1cc2c3c(c(N)nc2cc1F)COC3)C1c2ccc(C(F)(F)F)nc2CC1(F)F (racemic) [Example 215, 4-amino-N-((5R)-6,6-difluoro-2-(trifluoromethyl)-6,7-dihydro-5H-cyclopenta[b]-pyridin-5-yl)-7-fluoro-N-methyl-1,3-dihydrofuro[3,4-c]-quinoline-8-carboxamide and 4-amino-N-((5S)-6,6-difluoro-2-(trifluoromethyl)-6,7-dihydro-5H-cyclopenta[b]pyridin-5-yl)-7-fluoro-N-methyl-1,3-dihydro-furo[3,4-c] quinoline-8-carboxamide]	0.427 µM	15 µM
CN(C(=O)c1ccc2nc(N)c3cnn(C)c3c2c1)C1COc2ncc(C(F)(F)F)cc21 (racemic) [Example 226, 4-amino-N,1-dimethyl-N-((3R)-5-(trifluoromethyl)-2,3-dihydrofuro[2,3-b]pyridin-3-yl)-1H-pyrazolo[4,3-c]quinoline-8-carboxamide and 4-amino-N,1-dimethyl-N-((3S)-5-(trifluoromethyl)-2,3-dihydro-furo[2,3-b]pyridin-3-yl)-1H-pyrazolo[4,3-c]quinoline-8-carboxamide]	0.038 µM	2.15 µM
CN(C(=O)c1ccc2nc(N)c3cnn(C)c3c2c1)C1c2ccc(C(F)(F)F)nc2CC1(F)F (racemic) [Example 233, 4-amino-N-((5R)-6,6-difluoro-2-(trifluoromethyl)-6,7-dihydro-5H-cyclopenta[b]pyridin-5-yl)-N,1-dimethyl-1H-pyrazolo[4,3-c]quinoline-8-carboxamide and 4-amino-N-((5S)-6,6-difluoro-2-(trifluoromethyl)-6,7-dihydro-5H-cyclopenta[b]pyridin-5-yl)-N,1-dimethyl-1H-pyrazolo[4,3-c]quinoline-8-carboxamide]	0.723 µM	19 µM
CN(C(=O)c1cc2c(cc1F)nc(N)c1cnn(C)c12)C1COc2nc(C(F)(F)F)ccc21 (racemic) [Example 242, 4-amino-7-fluoro-N,1-dimethyl-N-((3R)-6-(trifluoromethyl)-2,3-dihydrofuro[2,3-b]pyridin-3-yl)-1H-pyrazolo[4,3-c]-quinoline-8-carboxamide and 4-amino-7-fluoro-N,1-dimethyl-N-((3S)-6-(trifluoromethyl)-2,3-dihydrofuro[2,3-b]pyridin-3-yl)-1H-pyrazolo[4,3-c]-quinoline-8-carboxamide]	0.005 µM	0.533 µM

The remaining lines, values ahead:

IC50 [1]	IC50 [2]	SMILES
0.871 µM	38.3 µM	CN(C(=O)c1cc2c3c(c(N)nc2cc1F)COC3)[C@@H]1COc2cc(C(F)(F)F)cnc21 (mixture of isomers) [Example 461, 4-amino-7-fluoro-N-methyl-N-((3R)-6-(trifluoromethyl)-2,3-dihydrofuro[3,2-b]pyridin-3-yl)-1,3-dihydrofuro[3,4-c]quinoline-8-carboxamide and 4-amino-7-fluoro-N-methyl-N-((3S)-6-(trifluoromethyl)-2,3-dihydrofuro[3,2-b]pyridin-3-yl)-1,3-dihydrofuro[3,4-c]quinoline-8-carboxamide]
0.149 µM	5.82 µM	CN(C(=O)c1ccc2nc(N)c3c(c2c1)COC3)C1COc2cc(C#N)ccc21 (racemic) [Example 201, 4-amino-N-((3R)-6-cyano-2,3-dihydro-1-benzofuran-3-yl)-N-methyl-1,3-dihydrofuro[3,4-c]quinoline-8-carboxamide and 4-amino-N-((3S)-6-cyano-2,3-dihydro-1-benzofuran-3-yl)-N-methyl-1,3-dihydrofuro[3,4-c]quinoline-8-carboxamide]
0.553 µM	16.6 µM	N#CCN(C(=O)c1cc2c3c(c(N)nc2cn1)COC3)C1COc2cc(C(F)(F)F)ccc21 (racemic) [Example 208, 4-amino-N-(cyanomethyl)-N-((3R)-6-(trifluoromethyl)-2,3-dihydro-1-benzofuran-3-yl)-1,3-dihydrofuro[3,4-c][1,7]-naphthyridine-8-carboxamide and 4-amino-N-(cyanomethyl)-N-((3S)-6-(trifluoromethyl)-2,3-dihydro-1-benzofuran-3-yl)-1,3-dihydrofuro[3,4-c][1,7]-naphthyridine-8-carboxamide]
0.365 µM	12.9 µM	CN(C(=O)c1cc2c3c(c(N)nc2cc1F)COC3)C1c2ccc(C(F)(F)F)nc2CC1(C)C (racemic) [Example 213, 4-amino-N-((5R)-6,6-dimethyl-2-(trifluoromethyl)-6,7-dihydro-5H-cyclopenta[b]-pyridin-5-yl)-7-fluoro-N-methyl-1,3-dihydrofuro[3,4-c]-quinoline-8-carboxamide and 4-amino-N-((5S)-6,6-dimethyl-2-(trifluoromethyl)-6,7-dihydro-5H-cyclopenta[b]-pyridin-5-yl)-7-fluoro-N-methyl-1,3-dihydrofuro[3,4-c]-quinoline-8-carboxamide]
0.007 µM	0.683 µM	CCN(C(=O)c1ccc2nc(N)c3cnn(C)c3c2c1)C1COc2cc(C(F)(F)F)ccc21 (racemic) [Example 228, 4-amino-N-ethyl-1-methyl-N-((3R)-6-(trifluoromethyl)-2,3-dihydro-1-benzofuran-3-yl)-1H-pyrazolo[4,3-c]quinoline-8-carboxamide and 4-amino-N-ethyl-1-methyl-N-((3S)-6-(trifluoromethyl)-2,3-dihydro-1-benzofuran-3-yl)-1H-pyrazolo[4,3-c]quinoline-8-carboxamide]
